How the values were obtained:
Type in all cases: in vivo
[1] = tested on: Echinochloa crus-galli (ECHCG); test: Pre-emergence herbicidal activity, glasshouse pot test; set-up: key: 5=total damage to plant; 0=no damage to plant; conditions: 1000 g/ha, pre-emergence spray, evaluated after 13 days, damage score 0-5
Summary of the method: (§1)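 Seeds sown in standard soil were sprayed one day after sowing (pre-emergence) with active ingredient formulated in acetone/water (50:50) containing 0.5% Tween 20. Plants were grown in a glasshouse (24/16 °C day/night, 14 h light, 65% humidity) and watered twice daily. Damage was scored after 13 days on a 0–5 scale (5 = total damage, 0 = none).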

Lolium perenne (LOLPE) [2] = test: as above; set-up: key: 5=total damage to plant; 0=no damage to plant; conditions: 1000 g/ha, pre-emergence spray, evaluated after 13 days, damage score 0-5
Summary of the method: as §1

[3] = tested on: Alopecurus myosuroides (ALOMY); test: as above; set-up: key: 5=total damage to plant; 0=no damage to plant; conditions: 1000 g/ha, pre-emergence spray, evaluated after 13 days, damage score 0-5
Summary of the method: as §1

[4] = tested on: Triticum aestivium (TRZAW); test: as above; set-up: key: 5=total damage to plant; 0=no damage to plant; conditions: 1000 g/ha, pre-emergence spray, evaluated after 13 days, damage score 0-5
Summary of the method: as §1

Setaria faberi (SETFA) [5] = test: as above; set-up: key: 5=total damage to plant; 0=no damage to plant; conditions: 1000 g/ha, pre-emergence spray, evaluated after 13 days, damage score 0-5
Summary of the method: as §1

Avena fatua (AVEFA) [6] = test: as above; set-up: key: 5=total damage to plant; 0=no damage to plant; conditions: 1000 g/ha, pre-emergence spray, evaluated after 13 days, damage score 0-5
Summary of the method: as §1

Avena fatua (AVEFA) [7] = test: Post-emergence herbicidal activity, glasshouse pot test; conditions: 1000 g/ha, post-emergence spray after 8 days cultivation, evaluated after 13 days, damage score 0-5
Summary of the method: (§2)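 Seedlings raised in standard soil under controlled glasshouse conditions received a foliar spray of the formulated compound after 8 days of cultivation. They were then kept at 24/16° C with 14 hours light and 65% humidity. Injury was assessed after 13 days, from 0 for no damage to 5 for total damage.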

[8] = tested on: Echinochloa crus-galli (ECHCG); test: as above; set-up: key: 5=total damage to plant; 0=no damage to plant; conditions: 1000 g/ha, post-emergence spray after 8 days cultivation, evaluated after 13 days, damage score 0-5
Summary of the method: as §2

Lolium perenne (LOLPE) [9] = test: as above; set-up: key: 5=total damage to plant; 0=no damage to plant; conditions: 1000 g/ha, post-emergence spray after 8 days cultivation, evaluated after 13 days, damage score 0-5
Summary of the method: as §2

[10] = tested on: Alopecurus myosuroides (ALOMY); test: as above; set-up: key: 5=total damage to plant; 0=no damage to plant; conditions: 1000 g/ha, post-emergence spray after 8 days cultivation, evaluated after 13 days, damage score 0-5
Summary of the method: as §2

[11] = tested on: Triticum aestivium (TRZAW); test: as above; set-up: key: 5=total damage to plant; 0=no damage to plant; conditions: 1000 g/ha, post-emergence spray after 8 days cultivation, evaluated after 13 days, damage score 0-5
Summary of the method: as §2

Setaria faberi (SETFA) [12] = test: as above; set-up: key: 5=total damage to plant; 0=no damage to plant; conditions: 1000 g/ha, post-emergence spray after 8 days cultivation, evaluated after 13 days, damage score 0-5
Summary of the method: as §2

SMILES	Control of weed species after pre-emergence application, ECHCG [1]	Control of weed species after pre-emergence application, LOLPE (Lolium perenne (LOLPE) [2])	Control of weed species after pre-emergence application, ALOMY [3]	Control of weed species after pre-emergence application, TRAZW [4]	Control of weed species after pre-emergence application, SETFA (Setaria faberi (SETFA) [5])	Control of weed species after pre-emergence application, AVEFA (Avena fatua (AVEFA) [6])	Control of weed species after post-emergence application, AVEFA (Avena fatua (AVEFA) [7])	Control of weed species after post-emergence application, ECHCG [8]	Control of weed species after post-emergence application, LOLPE (Lolium perenne (LOLPE) [9])	Control of weed species after post-emergence application, ALOMY [10]	Control of weed species after post-emergence application, TRAZW [11]	Control of weed species after post-emergence application, SETFA (Setaria faberi (SETFA) [12])
CCC(=O)N(C(=O)CC)c1cnc(-c2cncc(F)c2)nc1C(F)(F)F [Compound F7]	2	1	0	0	2	1	2	5	2	1	1	4
Cc1ccc(C(=O)Nc2cnc(-c3cncc(F)c3)nc2C(F)(F)F)cc1 [Compound F25]	3	0	0	0	4	0	2	5	1	0	0	4
COCC(=O)Nc1cnc(-c2cncc(F)c2)nc1C(F)(F)F [Compound F3]	3	1	0	0	3	2	4	4	2	0	1	4
O=C1CCCN1c1cnc(-c2cncc(F)c2)nc1C(F)(F)F [Compound F22]	3	0	0	0	5	0	3	5	1	0	1	5

— US20200267980A1, “Herbicidally Active Pyridyl-/Pyrimidyl-Pyrimidine Derivatives” (Syngenta Participations AG, priority 2017, published 2020)
